As usually defined, the pIC50 is the IC50 on a negative log10 scale, so that one unit is a factor of ten. In general, viability refers to a read-out of living cells in per cent, often relative to untreated cells.

Results on eleven compounds are retold here after article PMC8619434 (Viruses, 2021).

pIC50: −log10 of the molar value. Entries after “also recorded” stand apart in the source; their conditions may differ. Structures can show the parent of a compound that is named as a salt. Where two headings read alike, the source gives them in different places.

One data set relates to SARS-CoV-1-S pseudovirus. It is filed as cell-based.
The next data set deals with MERS-CoV-S pseudovirus. It is filed as cell-based.
The subject of data set [1] is SARS-CoV-2 spike protein pseudovirus. Put plainly: microbe, parasite or virus in culture. The class given is cell-based. As to conditions: for activity at 10 µM: 293T/ACE2, 48 h, read-out: % Infectivity of SARS-2-Spike pv.
In another data set the test system is VSV-G pseudovirus. Put plainly: microbe, parasite or virus in culture. To be noted: for activity at 10 µM: Pseudovirus, 293T/ACE2, read-out: % Infectivity of VSV-G pv. The class given is cell-based, vesicular stomatitis virus.
A short description of another data set: in vitro. To be noted: human.
The test system of data set [2] is SARS-CoV-2 spike protein pseudovirus. It is filed as cell-based.
For data set [3] the test system is unchanged. The class given is cell-based. The source holds these as a separate data set.
The test system is the same in data set [4]. As to conditions: Caco-2.
For data set [5] the following is noted: predictions for the uncharged form; ref https://go.drugbank.com; cited from earlier work.
For data set [6] the following is noted: values for the salts; ref chemical supplier datasheets; cited from earlier work.
In data set [7] the test system is SARS-CoV-2 spike protein pseudovirus. The class given is cell-based. The source holds these as a separate data set.
For data set [8] the following is noted: within current drug treatment regimes; ref PubChem database; read-out: peak serum concentration (Cmax); cited from earlier work.
Data set [9] has as its system SARS-CoV-2 spike protein pseudovirus. It is filed as cell-based. The source holds these as a separate data set.
The test system is the same in data set [10]. It is filed as cell-based. This is another data set of the same source.
Setting [11] is: 293T/ACE2, read-out: IC50 of SARS-CoV-2-S pseudovirus infectivity.

Consider `CCOC(=O)C1=C(COCCN)NC(C)=C(C(=O)OC)C1c1ccccc1Cl` (stereo not drawn) [amlodipine], for which the “toxicity in Calu3 cells (word printed in Figure 7)” value (“toxicity in Calu3 cells” for short) in the data set on Calu3 cells is “toxic”. Moreover, in the data set on SARS-CoV-1-S pseudovirus, the “inhibition of SARS-CoV-1-S pseudovirus infection” value is “significant inhibition”. Besides, the “inhibition of MERS-CoV-S pseudovirus infection” value in the data set on MERS-CoV-S pseudovirus is given as “non-significant inhibition”. Besides, the activity at 10 µM in data set [1] was determined as 12%. Moreover, the pIC50 in data set [1] (setting [11]) was 5.25. In the data set on VSV-G pseudovirus, the “% Infectivity of VSV-G pv” value was 78%. Further, the viability in “in vitro” (% Viability of SARS-2-Spike pv) was 115%.

For the compound `CN(C)C(=O)COC(=O)Cc1ccc(OC(=O)c2ccc(NC(=N)N)cc2)cc1` [camostat mesylate], the “inhibition of SARS-CoV-1-S pseudovirus infection” value in the data set on SARS-CoV-1-S pseudovirus is given as “did not inhibit”. For the same compound, the “% infectivity of SARS-CoV-2 pseudovirus in Calu3 cells” value (from here on “% infectivity … in Calu3 cells”) in data set [2] is listed as “inhibited”. Besides, the “inhibition of SARS-CoV-2 pseudovirus infection of A549-ACE2 cells” value (“inhibition … of A549-ACE2 cells” for short) in [3] was “failed to inhibit”. Further, in the data set on MERS-CoV-S pseudovirus, the “inhibition of MERS-CoV-S pseudovirus infection” value is on record as “did not inhibit”. The “inhibition of SARS-CoV-2 pseudovirus infection of Caco2 cells” value in data set [4] was “inhibited”. Besides, the activity at 10 µM in [1] turned out to be 120%. In addition, in the data set with VSV-G pseudovirus, the “% Infectivity of VSV-G pv” value was “did not inhibit”.

Consider `CCN(CC)CCCC(C)Nc1ccnc2cc(Cl)ccc12` (stereo not drawn) [chloroquine diphosphate], for which, in the data set with SARS-CoV-1-S pseudovirus, the “inhibition of SARS-CoV-1-S pseudovirus infection” value is given as “inhibited”. Also, the “inhibition … of A549-ACE2 cells” value in data set [3] was “failed to inhibit”. Besides, the “inhibition of MERS-CoV-S pseudovirus infection” value in the data set on MERS-CoV-S pseudovirus is “inhibited”. The activity at 10 µM amounted to 1% in data set [1] and 83% with VSV-G pseudovirus. The pIC50 in data set [1] (setting [11]) is 6.49. In addition, the viability in the data set “in vitro” is 123%.

As for `CN(C)CCCN1c2ccccc2Sc2ccc(Cl)cc21` [chlorpromazine HCl], the water solubility a in data set [5] was 12 µM. The water solubility b in data set [6] was 141000 µM. In addition, in data set [7], the “% infectivity, drug added at 1 hpi (post-entry)” value (“% infectivity, drug added” for short) amounted to 35%. Besides, the activity at 10 µM in data set [1] worked out at 6%; with VSV-G pseudovirus it was 58%. For the same compound, the pIC50 in data set [1] (setting [11]) is 5.42. Besides, in “in vitro” (% Viability of SARS-2-Spike pv), the viability was determined as 65%.

For the compound `CN(C)CC/C=C1/c2ccccc2Sc2ccc(Cl)cc21` [chlorprothixene], the “% infectivity … in Calu3 cells” value in data set [2] is on record as 44%. In [8], the Cmax is 1400 nM. Further, in [7], the “% infectivity, drug added” value came to 45%. The activity at 10 µM in data set [1] turned out to be 5%; in the data set with VSV-G pseudovirus, 48%. Also, the negative-log IC50 (pIC50) in [1] (setting [11]) is 5.71. Moreover, in [9], the “% infectivity in attachment assay” value is listed as “did not inhibit virus attachment”. Moreover, the viability in the data set “in vitro” (% Viability of SARS-2-Spike pv) was 97%.

Take `CCN(CCO)CCCC(C)Nc1ccnc2cc(Cl)ccc12` (stereo not drawn) [hydroxychloroquine sulfate]: in the data set with SARS-CoV-1-S pseudovirus, the “inhibition of SARS-CoV-1-S pseudovirus infection” value is reported as “inhibited”. The water solubility a in [5] is 60 µM. Further, the “inhibition … of A549-ACE2 cells” value in data set [3] was “failed to inhibit”. In addition, the water solubility b in data set [6] is 200000 µM. Besides, the “inhibition of MERS-CoV-S pseudovirus infection” value in the data set on MERS-CoV-S pseudovirus was “inhibited”. The activity at 10 µM in data set [1] amounted to 2%; in the data set on VSV-G pseudovirus, 103%. Further, the pIC50 in data set [1] (setting [11]) is 6.18; in data set [1] (read-out: IC50 of SARS-CoV-2-S pseudovirus infectivity), 6.15. The “% infectivity in attachment assay” value in data set [9] was “did not inhibit attachment”. In “in vitro” (% Viability of SARS-2-Spike pv), the viability turned out to be 90%.

Regarding `CN[C@H]1CC[C@@H](c2ccc(Cl)c(Cl)c2)c2ccccc21` [sertraline HCl], the “toxicity in Calu3 cells” value in the data set on Calu3 cells is recorded as “toxic”. Also, the activity at 10 µM in data set [1] was found to be 8%; in the data set with VSV-G pseudovirus, 71%. In the data set “in vitro” (% Viability of SARS-2-Spike pv), the viability was found to be 95%.

Turning to `CC(C)OC(=O)OCOP(=O)(CO[C@H](C)Cn1cnc2c(N)ncnc21)OCOC(=O)OC(C)C.O=C(O)/C=C/C(=O)O` [tenofovir, tenofovir disoproxil fumarate], the “inhibition of SARS-CoV-1-S pseudovirus infection” value with SARS-CoV-1-S pseudovirus was “completely inhibited”. The “% infectivity … in Calu3 cells” value in data set [2] is given as “complete inhibition”. For the same compound, in data set [3], the “inhibition … of A549-ACE2 cells” value was “complete inhibition”. In the data set on MERS-CoV-S pseudovirus, the “inhibition of MERS-CoV-S pseudovirus infection” value is on record as “completely inhibited”. The “% infectivity, drug added” value in data set [7] is “complete inhibition”. Also, the “inhibition of SARS-CoV-2 pseudovirus infection of Caco2 cells” value in data set [4] is recorded as “complete inhibition”. In addition, the “% Infectivity of SARS-2-Spike pv” value in data set [1] is listed as “completely inhibited”. Besides, the “% Infectivity of VSV-G pv” value with VSV-G pseudovirus is “potently inhibited; also recorded: completely inhibited”. For the same compound, the “inhibition of SARS-CoV-2 pseudovirus infection of Vero cells” value in data set [10] is recorded as “complete inhibition”.

Take `CSc1ccc2c(c1)N(CCC1CCCCN1C)c1ccccc1S2` (stereo not drawn) [thioridazine HCl]: the “inhibition of SARS-CoV-1-S pseudovirus infection” value in the data set with SARS-CoV-1-S pseudovirus is recorded as “significant inhibition”. For the same compound, the water solubility a in data set [5] was 2.1 µM. Moreover, in data set [2], the “% infectivity … in Calu3 cells” value was 22%. Further, the water solubility b in [6] was 122000 µM. In addition, the “inhibition of MERS-CoV-S pseudovirus infection” value in the data set with MERS-CoV-S pseudovirus is on record as “non-significant inhibition”. Further, the activity at 10 µM in [1] was 6%; with VSV-G pseudovirus, 69%. Moreover, in [9], the “% infectivity in attachment assay” value is given as 28%. In “in vitro” (% Viability of SARS-2-Spike pv), the viability was 71%.

Regarding `CC(CN(C)C)CN1c2ccccc2CCc2ccccc21` (stereo not drawn) [trimipramine maleate], the water solubility a in data set [5] is 88 µM. The “% infectivity … in Calu3 cells” value in data set [2] turned out to be 8%. Further, the water solubility b in [6] was 5000 µM. Further, the activity at 10 µM in [1] is 14%; in the data set on VSV-G pseudovirus it was 95%. Also, the pIC50 in [1] (setting [11]) was 5.27. Moreover, the viability in “in vitro” (% Viability of SARS-2-Spike pv) was determined as 92%.

With `COc1cc2c(Nc3ccc(Br)cc3F)ncnc2cc1OCC1CCN(C)CC1` [vandetanib], the “toxicity in Calu3 cells” value in the data set with Calu3 cells is recorded as “toxic”. The results for the activity at 10 µM (in [1]; in the data set on VSV-G pseudovirus) were 1% and 125%, respectively. In data set [1] (setting [11]), the pIC50 was 5.19. Further, the viability in “in vitro” is 89%.
